Results as given in US20210308101A1, “METHODS OF TREATING FIBROMYALGIA” (Aptinyx Inc., priority 2019, published 2021).

System: subjects with fibromyalgia
Assay: Revised Fibromyalgia Impact Questionnaire (FIQR)
Assay type: in vivo, human
Description: As used herein, “FIQR” is Revised Fibromyalgia Impact Questionnaire. The FIQR is an updated version of the Fibromyalgia Impact Questionnaire which is an assessment of the physical functioning, work status, depression, anxiety, morning tiredness, pain, stiffness, fatigue and wellbeing in fibromyalgia subjects measured over the period of 1 week. The FIQR differs from the FIQ in that it includes questions on memory, tenderness, balance, and environmental sensitivity as well as modified function questions. All 21 FIQR questions are based on an 11-point numerical rating scale/Likert scale ranging from 0 to 10. Lower scores represent a better quality of life. The FIQR is made of the 3 following domains: • Function Domain Score • 9 Questions with Scores Ranging from 0 (No Difficulty) to 10 (Very Difficult) • Sum of those 9 Questions make up the Function Domain Score Ranging from 0 to 90 • Missing Data Imputation Factor: If at least 5 questions were answered, the Function Domain Score was multiplied by 9/(number of questions answered) and rounded off to the nearest whole number. Otherwise, the score was set to missing. • Overall Impact Domain Score • 2 Questions with Scores Ranging from 0 (Never) to 10 (Always) • Sum of those 2 Questions make up the Overall Impact Domain Score Ranging from 0 to 20 • Missing Data Imputation Factor: If 1 question was missing, the Overall Impact Domain Score was multiplied by 2. Otherwise, the score was set to missing. • Symptoms Domain Score • 10 Questions with Scores Ranging from 0 to 10 with Different Categorical Reponses Sum of those 10 Questions make up the Symptoms Domain Score Ranging from 0 to 100 Missing Data Imputation Factor: If at least 5 questions were answered, the Function Domain Score was multiplied by 10/(number of questions answered) and rounded off to the nearest whole number. Otherwise, the score was set to missing.
If all 3 domain scores could be calculated, the Total FIQR Score ranged from 0 to 100 and was calculated based on the normalization domain scores: (Function Domain Score/3)+Overall Impact Domain Score+(Symptoms Domain Score/2). Otherwise, the Total FIQR Score was set to missing. The Function and Symptoms domain scores collected on the CRF applied the normalization factors stated above (Function Domain Score/3 and Symptoms Domain Score/2) in order to calculate the Total FIQR Score on the CRF. As a result, the Function and Symptoms domain scores were derived by the definition stated above in the SAP as opposed to using the collected values on the CRF. The FIQR assessment was collected and analyzed at visits Screening, Day 1, Week 2, Week 4, Week 6, and Follow-up (Week 7). The observed total and domain scores, changes from baseline, and changes from treatment periods were summarized using descriptive statistics. Additionally, the treatment group comparisons were analyzed using the paired ttest and nonparametric Wilcoxon signed-rank test. All FIQR data collected and the calculated total and domain scores at each visit were presented in a subject listing.

[1] = Week 2 (placebo) to Week 4 (NYX-2925 20 mg)
[2] = Week 2 (placebo) to Week 6 (NYX-2925 200 mg)

CC(C)C(=O)N1CCC[C@]12CN([C@H](C(N)=O)[C@@H](C)O)C2=O [NYX-2925, (2S, 3R)-3-hydroxy-2-((R)-5-isobutyryl-1-oxo-2,5-diazaspiro[3.4]octan-2-yl)butanamide]
total FIQR score, change from baseline (NYX-2925 20 mg): reductions from baseline | FIQR Symptoms Domain score, mean change [1]: −2.1 | FIQR Total score, mean change [1]: −0.5 | FIQR Function Domain score, mean change [2]: −3.7 | FIQR Overall Impact Domain score, mean change [2]: −2.0 | FIQR Total score, mean change (Week 2 (placebo) to Week 6 (NYX-2925 200 mg), p=0.0135): −6.3 | FIQR Symptoms Domain score, mean change (Week 2 (placebo) to Week 6 (NYX-2925 200 mg), p=0.0207): −6.2 | Total FIQR score, reduction from baseline (week six, after four weeks of NYX-2925, scale 0 to 100, n=21): 9.6 point
